The target of one data set is T1, trypsin (Bos taurus, UniProt P00760).
T1 sequence (P00760 24-246): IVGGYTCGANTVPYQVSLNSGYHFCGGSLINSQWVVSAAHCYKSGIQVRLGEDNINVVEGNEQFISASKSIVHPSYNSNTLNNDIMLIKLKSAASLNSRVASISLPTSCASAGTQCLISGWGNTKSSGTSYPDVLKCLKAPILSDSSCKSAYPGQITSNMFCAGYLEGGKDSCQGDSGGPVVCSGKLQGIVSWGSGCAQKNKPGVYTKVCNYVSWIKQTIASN
Description: in vitro. The note with it: isolated enzyme trypsin, pH 7.8. How it is done:
FIG. 17. […] At different time point, 25 μL aliquots was taken out, and 10% (v/v) TFA was added to terminate the reaction.
(§1) Mix by centrifugation at 8000 rpm for 30 seconds.
Arrange a certain volume of 0.05 μg/μL trypsin solution in another sterile EP. Incubate the EP tubes containing peptides and enzymes at 37° C. for 5 min, and separately add 6 μL of trypsin solution to each EP tube containing peptides and mix well. Start timing and extract 25 μL of reaction solution at 1.5, 3.0, 4.5, 6.0 and 9.0 min later, respectively. Add 3.75 μL of 10% TFA to terminate the reaction and mix well by centrifugation at 8000 rpm for 30 seconds.
Arrange a certain volume of 0.05 μg/μL trypsin solution in another sterile EP. Incubate the EP tubes containing peptides and enzymes at 37° C. for 5 min, and add 9 μL of trypsin solution to each EP tube containing peptides and mix well. Start timing and extract 25 μL of reaction solution at 1.5, 3.0, 4.5, 6.0, 9.0, 15.0, 30.0, and 60.0 min later, respectively. Add 3.75 μL of 10% TFA to terminate the reaction and mix well by centrifugation at 8000 rpm for 30 seconds.
Referring to the experimental method in Example 5, in vitro stability of salmon Calcitonin analogs with oral administration activity to the enzymatic hydrolysis by trypsin, chymotrypsin and elastase were performed.
Referring to the experimental method in Example 5, in vitro stability of IL-17A inhibitory peptides towards the enzymatic hydrolysis by trypsin, chymotrypsin and elastase were performed.

The target in a further data set is NEP24.11 (Homo sapiens, UniProt P08473). The data set can be described thus: Tolerance of GLP-1 and its analogues to NEP24.11 (RP-HPLC remaining peak area). Conditions: peptide 30 μM, NEP24.11 1.0 ng/μL, 37° C. The format is in vitro ADME. The protocol: as §1
Arrange a certain volume of 0.04 μg/μL NEP24.11 enzyme solution in another sterile EP.

Another data set deals with chymotrypsin (Bos taurus, UniProt P00766). Description: in vitro. In outline:
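Peptide and 0.05 μg/μL chymotrypsin were preincubated at 37 °C for 5 min, then mixed. Aliquots taken from 1.5 up to 60.0 min were quenched with 10% TFA, and remaining peptide was measured as RP-HPLC peak area.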

The target of a further data set is DPP-IV (Homo sapiens, UniProt P27487). The data set can be described thus: Tolerance of GLP-1 and its analogues to DPP-IV (RP-HPLC remaining peak area). The format is in vitro ADME. The note with it: peptide 25 μM, DPP-IV 0.5 ng/μL, 37° C.; for Remaining peak area (%)/DPP-IV: 0.0 h; for remaining at 0.5 h, 25 μM / remaining at 2 h, 25 μM / remaining at 4 h, 25 μM / remaining at 8 h, 25 μM / remaining at 12 h, 25 μM: isolated DPP-IV enzyme in buffer, pH 8. How it is done: as §1
(2) Arrange a certain volume of 0.005 μg/μL DPP-IV solution in another sterile EP.

Data set [1] in a line: Stability of GLP-1 and its analogues in human serum. The note with it: 25% (v/v) human serum.
Description: The amount of the prototype peptide at 0 h was taken as 100%. At different time point, 100 μL aliquots was taken out, and 300 μL precooled anhydrous methanol was added to terminate the reaction. The remaining percentage (%) of the peptide relative to the prototype peptide at that time point was analyzed by reverse phase high performance liquid chromatography. The experiment was performed with three replicates, and data were expressed as “mean±standard deviation”. The sample was subjected to high-speed centrifugation, supernatant extraction, and freeze drying, followed by dissolution in 50% (v/v) methanol/water solution, and analyzed by reverse phase high performance liquid chromatography. The experiment was performed with three replicates, and data were expressed as “mean±standard deviation”.
Invert and mix thoroughly, then leave at −20° C. overnight. At the same time, take three sterile EP tubes and add 25 μL of human serum, 75 μL of 50 mM Tris-HCl buffer (pH7.0), and 300 μL of pre-cold absolute methanol. Invert and mix thoroughly, then leave at −20° C. overnight as a negative control, so as to eliminate the interference of proteins or peptides contained in human serum at the peak time of the target peptide after methanol precipitation.
Arrange a certain volume of human serum in another sterile EP. Incubate the EP tubes containing peptides and serum at 37° C. for 10 min, and add 137.5 μL of human serum to each EP tube containing peptides and mix well. […] Start timing and remove 100 μL of reaction solution at 0.5, 2.0, 4.0, 8.0, and 12.0 h later, respectively. Add 300 μL of pre-cold absolute methanol. Invert and mix thoroughly, then leave at −20° C. overnight. […] There are three replicates at each time point, and the peak area of the peptide at each time point is detected using reverse phase high-performance liquid chromatography (RP-HPLC). The ratio of the remaining peak area of the sample at detection time T (h) to the peak area of the prototype peptide at 0 h is calculated as the remaining percentage (%) of the peptide.
[2] abbreviates: isolated enzyme chymotrypsin, pH 7.8, Remaining peak area (%)/chymotrypsin.

Chain of DPP-IV (P27487 whole entry, species assumed): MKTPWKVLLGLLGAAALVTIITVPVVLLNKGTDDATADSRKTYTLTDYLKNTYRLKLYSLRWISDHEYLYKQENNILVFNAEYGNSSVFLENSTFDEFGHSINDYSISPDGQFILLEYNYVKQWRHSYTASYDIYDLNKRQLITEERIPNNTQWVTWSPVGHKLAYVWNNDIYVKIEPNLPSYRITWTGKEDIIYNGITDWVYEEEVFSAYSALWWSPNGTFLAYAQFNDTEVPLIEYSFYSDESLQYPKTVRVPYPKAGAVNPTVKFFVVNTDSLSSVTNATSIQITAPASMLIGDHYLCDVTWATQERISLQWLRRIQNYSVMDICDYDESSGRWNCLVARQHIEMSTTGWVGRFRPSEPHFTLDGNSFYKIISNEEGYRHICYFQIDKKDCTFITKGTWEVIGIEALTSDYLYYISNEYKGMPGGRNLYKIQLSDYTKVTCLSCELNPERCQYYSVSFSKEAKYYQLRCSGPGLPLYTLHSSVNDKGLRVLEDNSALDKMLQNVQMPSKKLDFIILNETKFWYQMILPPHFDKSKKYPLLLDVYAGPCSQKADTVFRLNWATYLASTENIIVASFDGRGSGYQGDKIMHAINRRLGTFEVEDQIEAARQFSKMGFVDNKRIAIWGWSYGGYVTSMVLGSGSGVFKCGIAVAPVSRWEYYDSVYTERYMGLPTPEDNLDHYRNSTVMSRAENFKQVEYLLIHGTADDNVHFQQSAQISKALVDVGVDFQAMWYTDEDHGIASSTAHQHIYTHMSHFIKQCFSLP
Chain of NEP24.11 (P08473 whole entry): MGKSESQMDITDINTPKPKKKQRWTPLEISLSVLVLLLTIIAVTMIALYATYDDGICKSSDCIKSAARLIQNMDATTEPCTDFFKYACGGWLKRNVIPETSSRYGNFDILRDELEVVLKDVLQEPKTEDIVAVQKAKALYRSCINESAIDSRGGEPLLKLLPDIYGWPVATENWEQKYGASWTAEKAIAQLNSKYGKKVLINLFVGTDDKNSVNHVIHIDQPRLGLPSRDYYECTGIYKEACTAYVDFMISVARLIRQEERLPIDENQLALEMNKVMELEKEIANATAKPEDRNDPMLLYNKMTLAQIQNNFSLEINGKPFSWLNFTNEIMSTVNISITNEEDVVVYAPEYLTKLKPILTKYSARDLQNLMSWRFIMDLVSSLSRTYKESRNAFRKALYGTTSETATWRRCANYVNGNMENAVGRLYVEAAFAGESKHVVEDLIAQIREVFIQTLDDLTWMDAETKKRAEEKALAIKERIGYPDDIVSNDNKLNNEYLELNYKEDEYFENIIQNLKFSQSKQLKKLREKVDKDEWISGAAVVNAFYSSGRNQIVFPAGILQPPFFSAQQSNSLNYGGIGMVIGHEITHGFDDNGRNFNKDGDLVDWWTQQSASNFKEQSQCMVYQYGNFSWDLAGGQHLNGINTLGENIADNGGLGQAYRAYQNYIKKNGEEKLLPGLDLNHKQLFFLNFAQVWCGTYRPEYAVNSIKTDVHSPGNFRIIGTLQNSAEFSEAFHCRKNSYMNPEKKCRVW

Regarding `CC[C@H](C)[C@H](NC(=O)[C@H](Cc1ccccc1)NC(=O)[C@H](CCC(=O)O)NC(=O)[C@H](CCCCN)NC(=O)[C@H](C)NC(=O)[C@H](C)NC(=O)[C@H](CCC(N)=O)NC(=O)CNC(=O)[C@H](CCC(=O)O)NC(=O)[C@H](CC(C)C)NC(=O)[C@H](Cc1ccc(O)cc1)NC(=O)[C@H](CO)NC(=O)[C@H](CO)NC(=O)[C@@H](NC(=O)[C@H](CC(=O)O)NC(=O)[C@H](CO)NC(=O)[C@@H](NC(=O)[C@H](Cc1ccccc1)NC(=O)[C@@H](NC(=O)CNC(=O)[C@H](CCC(=O)O)NC(=O)[C@H](C)NC(=O)[C@H](Cc1c[nH]cn1)NC(=O)CNC(=O)CNC(=O)[C@H](CCCNC(=N)N)NC(=O)[C@H](CO)NC(=O)[C@H](Cc1ccccc1)NC(=O)[C@H](CCCNC(=N)N)NC(=O)[C@H](CCC(N)=O)NC(=O)CN)[C@@H](C)O)[C@@H](C)O)C(C)C)C(=O)N[C@@H](C)C(=O)N[C@@H](Cc1c[nH]c2ccccc12)C(=O)N[C@@H](CC(C)C)C(=O)N[C@H](C(=O)N[C@@H](CCCCN)C(=O)NCC(=O)N[C@@H](CCCNC(=N)N)C(=O)NCC(=O)NCC(=O)N[C@@H](CCCCN)C(=O)NCC(=O)N[C@@H](CCCNC(=N)N)C(=O)N[C@H]1CSSC[C@@H](C(=O)N[C@@H](Cc2ccccc2)C(=O)N2CCC[C@H]2C(=O)O)NC(=O)[C@H]([C@@H](C)CC)NC(=O)[C@@H]2CCCN2C(=O)[C@@H]2CCCN2C(=O)[C@H]([C@@H](C)CC)NC(=O)[C@H](CO)NC(=O)[C@H](CCCCN)NC(=O)[C@H]([C@@H](C)O)NC1=O)C(C)C` [N-GLP-1-BT1], at trypsin, the remaining at 0.025 h, 60 μM turned out to be 89.2 ± 3.7%; the remaining at 0.05 h, 60 μM is 83.2 ± 2.3%; the remaining at 0.075 h, 60 μM is 79.1 ± 1%; the remaining at 0.1 h, 60 μM is 84.4 ± 3.4%. Also, on trypsin, the remaining at 0.15 h, 60 μM is 83.9 ± 0.5%; the remaining at 0.25 h, 60 μM is 84.5 ± 4.9%; the remaining at 0.5 h, 60 μM worked out at 83.7 ± 3%; the remaining at 1 h, 60 μM amounted to 83.5 ± 1.4%. The “Remaining peak area (%)/NEP24.11” value at NEP24.11 (0.0 h) is reported as 100.0 ± 0.0%. Besides, the remaining at 0.5 h, 30 μM at NEP24.11 (isolated NEP24.11 enzyme in buffer, pH 7.4, 0.5 h) turned out to be 82.3 ± 8.3%. Besides, the remaining at 2 h, 30 μM at NEP24.11 (isolated NEP24.11 enzyme in buffer, pH 7.4, 2.0 h) turned out to be 80.3 ± 2%. In addition, the remaining at 4 h, 30 μM at NEP24.11 (isolated NEP24.11 enzyme in buffer, pH 7.4, 4.0 h) amounted to 74.4 ± 9.1%. On NEP24.11 (isolated NEP24.11 enzyme in buffer, pH 7.4, 8.0 h, read-out: Remaining peak area (%)/NEP24.11), the remaining at 8 h, 30 μM stood at 68.7 ± 8.4%. Also, on chymotrypsin (setting [2]), the remaining at 0.025 h, 60 μM amounted to 79.5 ± 4.9%; the remaining at 0.05 h, 60 μM is 71.8 ± 2.7%; the remaining at 0.075 h, 60 μM came out at 64.9 ± 1%; the remaining at 0.1 h, 60 μM was 59.8 ± 2.9%. In addition, on chymotrypsin (setting [2]), the remaining at 0.15 h, 60 μM was 51.9 ± 1%. In addition, on DPP-IV, the “Remaining peak area (%)/DPP-IV” value came out at 100.0 ± 0.0%; the remaining at 0.5 h, 25 μM stood at 84 ± 0.1%; the remaining at 2 h, 25 μM was found to be 80.1 ± 0.9%; the remaining at 4 h, 25 μM was 76 ± 1.6%. In addition, at DPP-IV, the remaining at 8 h, 25 μM turned out to be 74.1 ± 0.5% and the remaining at 12 h, 25 μM turned out to be 72.1 ± 2%.
Take `CC[C@H](C)[C@H](NC(=O)[C@H](Cc1ccccc1)NC(=O)[C@H](CCC(=O)O)NC(=O)[C@H](CCCCN)NC(=O)[C@H](C)NC(=O)[C@H](C)NC(=O)[C@H](CCC(N)=O)NC(=O)CNC(=O)[C@H](CCC(=O)O)NC(=O)[C@H](CC(C)C)NC(=O)[C@H](Cc1ccc(O)cc1)NC(=O)[C@H](CO)NC(=O)[C@H](CO)NC(=O)[C@@H](NC(=O)[C@H](CC(=O)O)NC(=O)[C@H](CO)NC(=O)[C@@H](NC(=O)[C@H](Cc1ccccc1)NC(=O)[C@@H](NC(=O)CNC(=O)[C@H](CCC(=O)O)NC(=O)[C@H](C)NC(=O)[C@H](Cc1c[nH]cn1)NC(=O)CNC(=O)CNC(=O)[C@@H](NC(=O)[C@@H]1CCCN1C(=O)[C@@H](NC(=O)CN)[C@@H](C)CC)[C@@H](C)CC)[C@@H](C)O)[C@@H](C)O)C(C)C)C(=O)N[C@@H](C)C(=O)N[C@@H](Cc1c[nH]c2ccccc12)C(=O)N[C@@H](CC(C)C)C(=O)N[C@H](C(=O)N[C@@H](CCCCN)C(=O)NCC(=O)N[C@@H](CCCNC(=N)N)C(=O)NCC(=O)NCC(=O)N[C@@H](CCCCN)C(=O)NCC(=O)N[C@@H](Cc1ccccc1)C(=O)N[C@H]1CSSC[C@@H](C(=O)N[C@@H](Cc2ccc(O)cc2)C(=O)NCC(=O)O)NC(=O)[C@H](CCC(N)=O)NC(=O)[C@@H]2CCCN2C(=O)[C@@H]2CCCN2C(=O)[C@H]([C@@H](C)CC)NC(=O)[C@H](CO)NC(=O)[C@H](Cc2ccc(O)cc2)NC(=O)[C@H]([C@@H](C)O)NC1=O)C(C)C` [D-GLP-1-CH10]: the “stability towards chymotrypsin hydrolysis (in words)” value at chymotrypsin is “lower residual amount”. At chymotrypsin (setting [2]), the remaining at 0.025 h, 60 μM stood at 33.4 ± 1.7%; the remaining at 0.05 h, 60 μM was 32.6 ± 0.7%; the remaining at 0.075 h, 60 μM worked out at 28.9 ± 1.1%; the remaining at 0.1 h, 60 μM turned out to be 31.9 ± 2.9%. At chymotrypsin (setting [2]), the remaining at 0.15 h, 60 μM was 31.3 ± 0.8%; the remaining at 0.25 h, 60 μM amounted to 30.9 ± 1%; the remaining at 0.5 h, 60 μM is 32.6 ± 0.6%; the remaining at 1 h, 60 μM came to 36.2 ± 1.4%. Besides, the “Remaining peak area (%)/human serum” value in data set [1] (0.0 h, peptide 0.03 mM, 37° C.) worked out at 100.0 ± 0.0%. Besides, in data set [1], the “serum stability (in words)” value is “more stable in serum”. In addition, in data set [1] (human, pH 7), the remaining at 0.5 h, 0.03 mM came to 98.4 ± 7.3%; the remaining at 2 h, 0.03 mM was 94.6 ± 2.1%; the remaining at 4 h, 0.03 mM is 101 ± 5.5%; the remaining at 8 h, 0.03 mM stood at 91.6 ± 6.8%. The remaining at 12 h, 0.03 mM in data set [1] (human, pH 7) is 43.7 ± 2.1%. Further, at DPP-IV, the “Remaining peak area (%)/DPP-IV” value is 100.0 ± 0.0%; the remaining at 0.5 h, 25 μM stood at 64.9 ± 3.7%; the remaining at 2 h, 25 μM turned out to be 66.2 ± 1%; the remaining at 4 h, 25 μM stood at 69.3 ± 3.3%. For the same compound, at DPP-IV, the remaining at 8 h, 25 μM is 70.8 ± 0.4% and the remaining at 12 h, 25 μM came out at 74.4 ± 0.3%.
